Experimental data taken from US20170172880A1, “Fast Dissolving Peroxymonosulfate Composition” (Colgate-Palmolive Company, priority 2015, published 2017).

Test: In vitro whitening test on coffee-stained bovine teeth (ΔW*)
Conditions: Example 6, MPS added to 2% hydrogen peroxide mouthwash
Procedure: The bovine teeth have initial L values of 57-65. The teeth are submerged in deionized water, then removed and soaked for 2 minutes in 20 mL of the test solution. The teeth are then rinsed three times with deionized water. Each such treatment cycle is repeated fourteen times, and after every two cycles values for L*, a* and b* are measured. These figures are used to calculate a whiteness score, W*, which is a measure of overall color change relative to pure white:
ΔW*=W*(treated)−W*(baseline)
The resulting instant whitening mouthwash is compared to a comparative 2% hydrogen peroxide whitening mouthwash composition using the procedure described in Example 5.
The comparative HP mouthwash is compared to the MPS mouthwash and the MPS/HP mouthwash in side-by-side experiments.

O=S(=O)([O-])O[O-].[K+].[K+] [MPS, potassium peroxymonosulfate]
whitening effect when added to a hydrogen peroxide mouthwash: significant and unexpected additive whitening effect
